The record followed here is US20240261218A1, “BIODEGRADABLE MUCOADHESIVE PHARMACEUTICAL FORMULATIONS AND METHODS THEREOF” (THE TEXAS A&M UNIVERSITY SYSTEM, priority 2021, published 2024).

Values joined by “and” are separate entries in the source; they are usually repeats but may differ in a detail not shown here. Equal entries are not always repeated. “Also recorded” adds a separate entry of the source. Where two headings read alike, the source gives them in different places.

A short description of data set [1]: Plasma concentrations before the fifth dose in 4NQO-treated rats. In kind it is in vivo, rat.
Data set [2] concerns Dysplastic oral keratinocyte (DOK) cells. Nature of the data set: MTT growth inhibition (IC50) in DOK cells. As to conditions: MTT assay; for IC50: read-out: IC50 concentration. In kind it is cell-based. An excerpt:
• 1. Animal care and treatment. […] Combination index (CI) and isoborogram. […] Pharmaceutical formulation. […] LC-MS/MS.
On the technique in general: Formazan colour is commonly taken as a measure of viable cells.

Data set [3] is described as follows: In vivo active ingredient release: tongue tissue and plasma amounts in healthy rats. Also noted: species or system rat. As for the experimental part:
The instant example analyzes exemplary pharmaceutical formulations applied to the tongue of healthy rats for different time periods up to 4 hours. Concentrations of mycophenolic acid and oxaliplatin in tongue tissues were measured at the corresponding times and up to 12 hours from the beginning of the formulation application in rats. The following are groups of rats that were studied: • Group #1: Formulation applied for 0.5 hour and rat tongues were harvested for drug analysis. N=8 rats. • Group #2: Formulation applied for 1 hour and rat tongues were harvested for drug analysis. N=13 rats. • Group #3: Formulation applied for 2 hours and rat tongues were harvested for drug analysis. N=13 rats. • Group #4: Formulation applied for 3 hours and rat tongues were harvested for drug analysis. N=12 rats. • Group #5: Formulation applied for 4 hours and rat tongues were harvested for drug analysis. N=6 rats. • Group #6: Formulation applied for 4 hours and removed from the rat. At 8 hours after the start of the Formulation application, rat tongues were harvested for drug analysis. N=7 rats. • Group #7: Formulation applied for 4 hours and removed from the rat. At 12 hours after the start of the Formulation application, rat tongues were harvested for drug analysis. N=9 rats.
• 1. Animal care and treatment. […] Combination index (CI) and isoborogram. […] Pharmaceutical formulation.

Data set [4] is described as follows: Stability of OXP in solutions. In kind it is physicochemical. From the text:
These chloride derivatives of OXP are not detectable by current available assays.

As to `O=C1[O][Pt]2([NH][C@@H]3CCCC[C@H]3[NH]2)[O]C1=O` (relative stereo) [OXP, [SP-4-2-(1R-trans)]-(1,2-cyclohexanediamine-N,N′)[ethanedioato(2-)-O,O′]platinum], the “Plasma concentration of oxaliplatin immediately before the fifth dose application” value is “not detectible” in data set [1] (4NQO induced rats, daily 2-hours supra-lingual formulation (9,040 ng MPS, 680 ng OXP)) and “No detectable levels; also recorded: Not detectible (ND)” in data set [1] (4NQO induced rats, daily 2-hours supra-lingual formulation (9,040 ng MPS, 680 ng OXP), listed as oxaliplatin). Further, the IC50 in data set [2] worked out at 1670 nM. Also, the “oxaliplatin in rat tongue as % of the formulation active ingredient load” value in data set [3] (0.5-hour formulation application group) is “about 21%”. Moreover, in data set [3] (any groups), the oxaliplatin in plasma entry is given as “no detectable oxaliplatin in plasma”. In data set [4] (NaCl (0.9%, 3%), KCl (3%)), the “stability of OXP in chloride-containing solutions” value was “converted by chloride in a time and concentration-dependent manner”. For the same compound, the “stability of OXP in NaPi, glucose, or H2O solutions and solutions containing the bioadhesive material components” value in data set [4] (NaPi 0.2M, glucose 5%, H2O, PAA, DOPA, CMC) was “remains stable”.

For the compound `O=c1[nH]cc(F)c(=O)[nH]1` [5-FU], the IC50 concentration in data set [2] is 3.33 µg/mL.

For `COc1c(C)c2c(c(O)c1C/C=C(\C)CCC(=O)O)C(=O)OC2` [MPS, mycophenolate], in data set [1] (4NQO induced rats, daily 2-hours supra-lingual formulation (9,040 ng MPS, 680 ng OXP), individual rats, steady-state trough), the “Plasma concentration of mycophenolate immediately before the fifth dose application” value was 8.24 ng/mL and 6.84 ng/mL and 3.83 ng/mL and 2.54 ng/mL and 4.82 ng/mL and 2.37 ng/mL and 5.18 ng/mL. For the same compound, the “plasma concentration of MPS right before the placement of the last (fifth) formulation, group value” in data set [1] (group treated with OXP-MPS formulations, 2 hours × 5 days) was 4.52 (+2.23) ng/ml. In data set [3] (0.5 hour supra-lingual application), the “MPS detected in rat tongue as % of the formulation drug load” value is given as “about 55%”. Further, the “plasma MPS concentrations” value in data set [3] (all groups) was “less than 10 ng/mL”. Further, the concentration at 8 h in data set [3] (male, Sprague-Dawley, rat, plasma, healthy rats, applied 4 hours, sampled 4 hours after removal (8 hours from beginning), mean ± SD) stood at 6.5 ± 1.3 ng/mL. Besides, the concentration at 12 h in data set [3] (male, Sprague-Dawley, rat, plasma, healthy rats, applied 4 hours, sampled 8 hours after removal (12 hours from beginning), mean ± SD) worked out at 4.26 ± 0.71 ng/mL. For the same compound, the concentration at 1 h in data set [3] (male, Sprague-Dawley, rat, plasma, healthy rats, supra-lingual formulation, 1 hour of application, mean ± SD) was 0.96 ± 0.26 ng/mL. The concentration at 2 h in data set [3] (male, Sprague-Dawley, rat, plasma, healthy rats, supra-lingual formulation, 2 hours of application, mean ± SD) was found to be 2.09 ± 0.76 ng/mL. Also, the concentration at 3 h in data set [3] (male, Sprague-Dawley, rat, plasma, healthy rats, supra-lingual formulation, 3 hours of application, mean ± SD) turned out to be 2.76 ± 0.68 ng/mL. Also, in data set [3] (male, Sprague-Dawley, rat, plasma, healthy rats, supra-lingual formulation, 4 hours of application, mean ± SD), the concentration at 4 h is 1.76 ± 0.53 ng/mL.

For the compound `CC(=O)O[C@H]1C(=O)[C@@]2(C)[C@H]([C@H](OC(=O)c3ccccc3)[C@]3(O)C[C@H](OC(=O)[C@H](O)[C@@H](NC(=O)c4ccccc4)c4ccccc4)C(C)=C1C3(C)C)[C@]1(OC(C)=O)CO[C@@H]1C[C@@H]2O` [paclitaxel], the IC50 in data set [2] (Keratinocyte) turned out to be 0.41 nM.

For `COc1c(C)c2c(c(O)c1C/C=C(\C)CCC(=O)O)C(=O)OC2` [MPA], the IC50 in data set [2] (Keratinocyte) is 13300 nM.
